From patent US5733913A, “6-Aryl pyrido[2,3-d] pyrimidines and naphthyridines for inhibiting protein tyrosine kinase mediated cellular proliferation” (priority 1995, dated 1998)
Read-outs that look alike come from different tables or passages of the source.

Experiments:
Assay type in all cases: biochemical
[1] = target: T1, C-src kinase (Homo sapiens, UniProt P12931); experiment: C-src kinase assay; details: for inhibition at 50 µM: read-out: Inhibition of Protein Tyrosine Kinases, C-src, % Inhibition
T1 construct: made in house; host or cells: baculovirus-infected insect cells
T1 sequence (P12931 whole entry): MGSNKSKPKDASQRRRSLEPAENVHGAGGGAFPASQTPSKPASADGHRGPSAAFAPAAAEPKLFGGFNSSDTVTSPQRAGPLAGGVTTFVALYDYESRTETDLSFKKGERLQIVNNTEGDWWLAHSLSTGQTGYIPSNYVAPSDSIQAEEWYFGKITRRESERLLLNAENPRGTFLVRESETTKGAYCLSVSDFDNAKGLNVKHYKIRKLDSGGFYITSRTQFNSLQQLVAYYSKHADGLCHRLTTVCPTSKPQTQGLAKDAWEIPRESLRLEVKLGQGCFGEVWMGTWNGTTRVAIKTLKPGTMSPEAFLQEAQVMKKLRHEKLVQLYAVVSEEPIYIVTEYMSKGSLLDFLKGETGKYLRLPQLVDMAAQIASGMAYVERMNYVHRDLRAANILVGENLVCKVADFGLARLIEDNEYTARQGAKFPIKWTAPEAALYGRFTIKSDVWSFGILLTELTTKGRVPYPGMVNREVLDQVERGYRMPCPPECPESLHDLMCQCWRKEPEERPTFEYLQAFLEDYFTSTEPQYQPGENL
Procedure: V-src and C-src Kinase Assays
V-src or C-src kinase is purified from baculovirus infected insect cell lysates using an antipeptide monoclonal antibody directed against the N-terminal 2-17 amino acids. The antibody, covalently linked to 0.65-μm latex beads, is added to a suspension of insect cell lysis buffer comprised of 150 mM NaCl, 50 mM Tris pH 7.5, 1 mM DTT, 1% NP-40, 2 mM EGTA, 1 mM sodium vanadate, 1 mM PMSF, 1 μg/mL each of leupeptin, pepstatin, and aprotinin. […] At the end of the lysate incubation, the beads are rinsed 3 times in lysis buffer, resuspended in lysis buffer containing 10% glycerol, and frozen. These latex beads are thawed, rinsed three times in assay buffer which is comprised of 40 mM tris pH 7.5, 5 mM MgCl2, and suspended in the same buffer. In a Millipore 96-well plate with a 0.65 μm polyvinylidine membrane bottom are added the reaction components: 10-μL v-src or c-src beads, 10 μL of 2.5 mg/mL poly GluTyr substrate, 5 μM ATP containing 0.2 μCi labeled ^32 P-ATP, 5μL DMSO containing inhibitors or as a solvent control, and buffer to make the final volume 125 μL. The reaction is started at room temperature by addition of the ATP and quenched 10 minutes later by the addition of 125 μL of 30% TCA, 0.1M sodium pyrophosphate for 5 minutes on ice. The plate is then filtered and the wells washed with two 250-μL aliquots of 15% TCA, 0.1M pyrophosphate. The filters are punched, counted in a liquid scintillation counter, and the data examined for inhibitory activity in comparison to a known inhibitor such as erbstatin. The method is described more fully in J. Med. Chem., 37:598-609 (1994).

[2] = target: T2, mouse PDGF-β receptor tyrosine kinase (Mus musculus, UniProt P05622); experiment: PDGF receptor tyrosine kinase assay; details: for IC50: read-out: Inhibition of Protein Tyrosine Kinases, PDGF, IC50; for inhibition at 50 µM: read-out: Inhibition of Protein Tyrosine Kinases, PDGF, % Inhibition
T2 construct: a fragment of DNA that codes for the intracellular tyrosine kinase domain; made in house; host or cells: Sf9 insect cells (baculovirus), cell lysate
T2 sequence (P05622 599-961 limits assumed): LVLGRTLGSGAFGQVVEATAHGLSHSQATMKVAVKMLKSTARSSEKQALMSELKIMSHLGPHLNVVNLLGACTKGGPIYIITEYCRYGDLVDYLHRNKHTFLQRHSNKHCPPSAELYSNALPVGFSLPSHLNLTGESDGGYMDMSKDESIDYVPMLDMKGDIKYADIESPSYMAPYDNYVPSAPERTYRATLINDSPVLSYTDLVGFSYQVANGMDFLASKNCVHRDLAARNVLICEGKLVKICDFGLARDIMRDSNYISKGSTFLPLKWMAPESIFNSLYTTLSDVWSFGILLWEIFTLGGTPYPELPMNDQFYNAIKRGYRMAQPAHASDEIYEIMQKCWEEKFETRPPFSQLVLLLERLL
From the text: (§1) PDGF and FGF Receptor Tyrosine Kinase Assays
(§2) Full length cDNAs for the mouse PDGF-β and human FGF-1 (flg) receptor tyrosine kinases were obtained from J. Escobedo and prepared as described in J. Biol. Chem., 262:1482-1487 (1991), and PCR primers were designed to amplify a fragment of DNA that codes for the intracellular tyrosine kinase domain. The fragment was melded into a baculovirus vector, cotransfected with AcMNPV DNA, and the recombinant virus isolated. SF9 insect cells were infected with the virus to overexpress the protein, and the cell lysate was used for the assay. […] Briefly, to each well was added 82.5 μL of incubation buffer containing 25 mM Hepes (pH 7.0), 150 mM NaCl, 0.1% Triton X-100, 0.2 mM PMSF, 0.2 mM Na3 VO4, 10 mM MnCl2, and 750 μg/mL of Poly (4:1) glutamate-tyrosine followed by 2.5 μL of inhibitor and 5 μL of enzyme lysate (7.5 μg/μL FGF-TK or 6.0 μg/μL PDGF-TK) to initiate the reaction. Following a 10 minute incubation at 25° C., 10 μL of γ^32 P-ATP (0.4 μCi plus 50 μM ATP) was added to each well and samples were incubated for an additional 10 minutes at 25° C. The reaction was terminated by the addition of 100 μL of 30% trichloroacetic acid (TCA) containing 20 mM sodium pyrophosphate and precipitation of material onto glass fiber filter mats (Wallac). […] Nonspecific activity was defined as radioactivity retained on the filters following incubation of samples with buffer alone (no enzyme). Specific enzymatic activity was defined as total activity (enzyme plus buffer) minus nonspecific activity.

[3] = target: T3, human FGF-1 (flg) receptor tyrosine kinase (Homo sapiens, UniProt P11362); experiment: FGF receptor tyrosine kinase assay; details: for IC50: read-out: Inhibition of Protein Tyrosine Kinases, FGF, IC50; for inhibition at 50 µM: read-out: Inhibition of Protein Tyrosine Kinases, FGF, % Inhibition
T3 construct: a fragment of DNA that codes for the intracellular tyrosine kinase domain; made in house; host or cells: Sf9 insect cells (baculovirus), cell lysate
T3 sequence (P11362 478-767 limits assumed): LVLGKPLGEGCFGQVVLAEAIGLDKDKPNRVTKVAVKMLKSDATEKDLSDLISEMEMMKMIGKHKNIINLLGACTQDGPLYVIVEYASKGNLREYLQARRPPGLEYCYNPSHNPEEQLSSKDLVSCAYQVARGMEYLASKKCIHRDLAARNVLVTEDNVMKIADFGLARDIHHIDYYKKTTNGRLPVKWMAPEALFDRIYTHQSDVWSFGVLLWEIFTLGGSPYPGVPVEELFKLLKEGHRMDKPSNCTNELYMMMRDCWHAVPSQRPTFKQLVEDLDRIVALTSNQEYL
From the text: as §1, §2

[4] = read-out: Inhibition of Protein Tyrosine Kinases, C-src, IC50

Row | Compound | IC50 [1, 4] [µM] | IC50 [2] [µM] | IC50 [3] [µM] | further results
1 | COc1cccc(NC(=O)Nc2nc3nc(NCCCN4CCN(C)CC4)ncc3cc2-c2c(Cl)cccc2Cl)c1 [Example 42, 1-{6-(2,6-Dichlorophenyl)-2-[3-(4-methyl-piperazin-1-yl)-propylamino]-pyrido[2,3-d]pyrimidin-7-yl}-3-(3-methoxy-phenyl)-urea] | 0.032 | 0.624 | – | –
2 | COc1ccccc1-c1cc2cnc(N)nc2nc1NC(=O)NC(C)(C)C [Example 101, 1-[2-Amino-6-(2-methoxy-phenyl)-pyrido[2,3-d]pyrimidin-7-yl]-3-tert-butyl-urea] | 19.3 | 4.48 | 11.2 | –
3 | CCNC(=O)Nc1nc2nc(NCCCN3CCN(C)CC3)ncc2cc1-c1c(Cl)cccc1Cl [Example 49, 1-{6-(2,6-Dichlorophenyl)-2-[3-(4-methyl-piperazin-1-yl)-propylamino]-pyrido[2,3-d]pyrimidin-7-yl}-3-ethyl-urea] | 0.024 | 0.42 | 0.0535 | –
4 | CN(C)C=Nc1ncc2cc(-c3c(Cl)cccc3Cl)c(N=CN(C)C)nc2n1 [Example 80, N'-[6-(2,6-Dichlorophenyl)-7-[(dimethylamino)methylene-amino]-pyrido[2,3-d]pyrimidin-2-yl]-N,N-dimethylformamidine] | – | – | 10.2 | inhibition at 50 µM [2]: 22.9%
5 | COc1cccc(OC)c1-c1cc2cnc(N)nc2nc1N [Example 64, 6-(2,6-Dimethoxy-phenyl)-pyrido[2,3-d]pyrimidine-2,7-diamine] | – | – | – | inhibition at 50 µM [1]: 0%; inhibition at 50 µM [3]: 23.8%; inhibition at 50 µM [2]: 13%
6 | Cc1cc(C)cc(-c2cc3cnc(N)nc3nc2N)c1 [Example 94, 6-(3,5-Dimethyl-phenyl)-pyrido[2,3-d]pyrimidine-2,7-diamine] | – | – | 17.6 | inhibition at 50 µM [2]: 11.5%
7 | CC(C)(C)NC(=O)Nc1nc2nc(N)ncc2cc1-c1c(Cl)cccc1Br [Example 105, 1-[2-Amino-6-(2-bromo-6-chloro-phenyl)-pyrido[2,3-d]pyrimidin-7-yl]-3-tert-butyl-urea] | 0.214 | 0.618 | 0.181 | –
8 | CN1CCN(CCCNc2ncc3cc(-c4c(Cl)cccc4Cl)c(NC(=O)Nc4cccc5ccccc45)nc3n2)CC1 [Example 50, 1-{6-(2,6-Dichlorophenyl)-2-[3-(4-methyl-piperazin-1-yl)-propylamino]-pyrido[2,3-d]pyrimidin-7-yl}-3-naphthalen-1-yl-urea] | – | 2.6 | 0.305 | –
9 | CC1CCCCN1CCCNc1ncc2cc(-c3c(Cl)cccc3Cl)c(NC(=O)NC(C)(C)C)nc2n1 (stereo not drawn) [Example 32, 1-tert-Butyl-3-{6-(2,6-dichlorophenyl)-2-[3-(2-methyl-piperidin-1-yl)-propylamino]-pyrido[2,3-d]pyrimidin-7-yl}-urea] | 5 | 0.415 | – | –
10 | CCN(CC)C(=O)Nc1nc2nc(NCCCN3CCN(C)CC3)ncc2cc1-c1c(Cl)cccc1Cl [Example 119, 3-{6-(2,6-Dichlorophenyl)-2-[3-(4-methyl-piperazin-1-yl)-propylamino]-pyrido[2,3-d]pyrimidin-7-yl}-1,1-diethyl-urea] | – | 62.4 | 7.71 | –
11 | Cc1cc(C)c(-c2cc3cnc(N)nc3nc2N)c(C)c1 [Example 96, 6-(2,4,6-Trimethyl-phenyl)-pyrido[2,3-d]pyrimidine-2,7-diamine] | – | 27.4 | 3.84 | –
12 | CN1CCN(CCCNc2ncc3cc(-c4c(Cl)cccc4Cl)c(NC4=NCCCO4)nc3n2)CC1 [Example 35, 6-(2,6-Dichlorophenyl)-N^7-(5,6-dihydro-4H-[1,3]oxazin-2-yl)-N^2-[3-(4-methyl-piperazin-1-yl)-propyl]-pyrido[2,3-d]pyrimidine-2,7-diamine] | – | 2.08 | – | inhibition at 50 µM [3]: 97.9%
13 | COc1ccc(NC(=O)Nc2nc3nc(NCCCN4CCN(C)CC4)ncc3cc2-c2c(Cl)cccc2Cl)cc1 [Example 41, 1-{6-(2,6-Dichlorophenyl)-2-[3-(4-methyl-piperazin-1-yl)-propylamino]-pyrido[2,3-d]pyrimidin-7-yl}-3-(4-methoxy-phenyl)-urea] | 0.086 | – | – | –
14 | Cc1cc(C)c(C)c(-c2cc3cnc(NCCCN4CCN(C)CC4)nc3nc2NC(=O)NC(C)(C)C)c1C [Example 121, 1-tert-Butyl-3-{2-[3-(4-methyl-piperazin-1-yl)-propylamino]-6-(2,3,5,6-tetramethyl-phenyl)-pyrido-[2,3-d]pyrimidin-7-yl}-urea] | – | – | 0.142 | inhibition at 50 µM [2]: 21.8%
15 | CN1CCN(CCCCNc2ncc3cc(-c4c(Cl)cccc4Cl)c(NC(=O)NC(C)(C)C)nc3n2)CC1 [Example 34, 1-tert-Butyl-3-{6-(2,6-dichlorophenyl)-2-[4-(4-methyl-piperazin-1-yl)-butylamino]-pyrido[2,3-d]pyrimidin-7-yl}-urea] | 0.011 | 0.349 | – | –
16 | CN1CCN(CCCNc2ncc3cc(-c4c(Cl)cccc4Cl)c(NC(=S)NC(C)(C)C)nc3n2)CC1 [Example 118, 1-tert-Butyl-3-{6-(2,6-dichlorophenyl)-2-[3-(4-methyl-piperazin-1-yl)-propylamino]-pyrido[2,3-d]pyrimidin-7-yl}-thiourea] | – | 1.92 | 0.126 | –
17 | Cc1cc(C)c(C)c(-c2cc3cnc(N)nc3nc2NC(=O)NC(C)(C)C)c1C [Example 99, 1-[2-Amino-6-(2,3,5,6-tetramethyl-phenyl)-pyrido[2,3-d]pyrimidin-7-yl]-3-tert-butyl-urea] | – | – | – | inhibition at 50 µM [1]: 17.1%
18 | CN1CCN(CCCNc2ncc3cc(-c4c(Cl)cccc4Cl)c(NC(=O)NC4CCCCC4)nc3n2)CC1 [Example 37, 1-Cyclohexyl-3-{6-(2,6-dichlorophenyl)-2-[3-(4-methyl-piperazin-1-yl)-propylamino]-pyrido[2,3-d]pyrimidin-7-yl}-urea] | – | – | – | inhibition at 50 µM [1]: 106%
19 | Nc1ncc2cc(-c3c(Cl)cccc3Br)c(N)nc2n1 [Example 104, 6-(2-Bromo-6-chloro-phenyl)-pyrido[2,3-d]pyrimidine-2,7-diamine] | – | 36.7 | 5.32 | –
20 | Nc1ncc2cc(-c3c(Br)cccc3Br)c(N)nc2n1 [Example 60, 6-(2,6-Dibromo-phenyl)-pyrido[2,3-d]pyrimidine-2,7-diamine] | – | – | 13 | IC50 [1]: 1.57 µM
21 | CN1CCN(CCCNc2ncc3cc(-c4c(Cl)cccc4Cl)c(NC(=O)NCc4ccccc4)nc3n2)CC1 [Example 39, 1-Benzyl-3-{6-(2,6-dichlorophenyl)-2-[3-(4-methyl-piperazin-1-yl)-propylamino]-pyrido[2,3-d]pyrimidin-7-yl}-urea] | 0.021 | – | – | –
22 | C=CCNC(=O)Nc1nc2nc(NCCCN3CCN(C)CC3)ncc2cc1-c1c(Cl)cccc1Cl [Example 40, 1-Allyl-3-{6-(2,6-dichlorophenyl)-2-[3-(4-methyl-piperazin-1-yl)-propylamino]-pyrido[2,3-d]pyrimidin-7-yl}-urea] | – | 0.697 | 0.0574 | –
23 | Nc1ncc2cc(-c3ccncc3)c(N)nc2n1 [Example 109, 6-Pyridin-4-yl-pyrido[2,3-d]pyrimidine-2,7-diamine] | – | – | – | inhibition at 50 µM [3]: 10.3%; inhibition at 50 µM [2]: 23.6%
24 | CCN(CC)CCCCNc1ncc2cc(-c3c(Cl)cccc3Cl)c(NC(=S)NCCCN3CCOCC3)nc2n1 [Example 122, 1-[6-(2,6-Dichlorophenyl)-2-(4-diethylamino-butylamino)-pyrido[2,3-d]pyrimidin-7-yl]-3-(3-morpholin-4-yl-propyl)-thiourea] | – | 1.46 | 0.171 | –
